From PubChem BioAssay AID258 (DTP/NCI, 2004)
Values joined by “and” are separate entries in the source; they are usually repeats but may differ in a detail not shown here. Identical values can stand only once. Toxic doses and inconclusive results are not listed. How the source made its calls: active means survival T/C of 150% or more; inactive means T/C below 125% in these data.

Tested on: CD2F1 mice, L1210 leukemia sc, survival T/C
Experiment: NCI In Vivo Anticancer Drug Screen. Data for tumor model L1210 Leukemia (subcutaneous) in CD2F1 (CDF1) mice
Settings: endpoint: median survival time, higher = longer survival
Procedure, shortened: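 Compound given to mice bearing transplantable tumor. Survival or tumor size then recorded. Result expressed relative to vehicle-dosed control group as T/C.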

[1] = dose: 300.0 mg/kg/injection, schedule: Q01DX Z (sc), vehicle: methylcellulose (MC)
[2] = dose: 500.0 mg/kg/injection, schedule: Q01DX Z (sc), vehicle: methylcellulose (MC)

Measured: T/C

Nc1nc([Se]c2nc(N)nc3c2ncn3C2OC(CO)C(O)C2O)c2ncn(C3OC(CO)C(O)C3O)c2n1 (centres undefined)
active: dose: 36.0 mg/kg/injection, schedule: Q01DX009 (ip), vehicle: distilled water + Tween-80 151 % of control | dose: 60.0 mg/kg/injection, schedule: Q01DX009 (ip), vehicle: distilled water + Tween-80 151 % of control and 168 % of control | dose: 100.0 mg/kg/injection, schedule: Q01DX009 (ip), vehicle: distilled water + Tween-80 156 % of control and 164 % of control | dose: 167.0 mg/kg/injection, schedule: Q01DX009 (ip), vehicle: distilled water + Tween-80 255 % of control and 297 % of control
inactive: dose: 12.5 mg/kg/injection, schedule: Q01DX005 (ip), vehicle: distilled water + Tween-80 106 % of control | dose: 25.0 mg/kg/injection, schedule: Q01DX005 (ip), vehicle: distilled water + Tween-80 115 % of control | dose: 50.0 mg/kg/injection, schedule: Q01DX005 (ip), vehicle: distilled water + Tween-80 122 % of control

CN(Cc1cnc2nc(N)nc(N)c2n1)c1c(Cl)cc(C(=O)NC(CCC(=O)O)C(=O)O)cc1Br (centres undefined)
active: dose: 17.0 mg/kg/injection, schedule: Q01DX Z (sc), vehicle: other 294 % of control and 318 % of control | dose: 28.0 mg/kg/injection, schedule: Q01DX Z (sc), vehicle: other 356 % of control and 511 % of control | dose: 46.0 mg/kg/injection, schedule: Q01DX Z (sc), vehicle: other 350 % of control | dose: 47.0 mg/kg/injection, schedule: Q01DX Z (sc), vehicle: other 838 % of control | dose: 47.1 mg/kg/injection, schedule: Q01DX Z (oral), vehicle: other 200 % of control | dose: 76.0 mg/kg/injection, schedule: Q01DX Z (sc), vehicle: other 262 % of control | dose: 78.0 mg/kg/injection, schedule: Q01DX Z (sc), vehicle: other 250 % of control | dose: 78.1 mg/kg/injection, schedule: Q01DX Z (oral), vehicle: other 183 % of control | dose: 126.0 mg/kg/injection, schedule: Q01DX Z (sc), vehicle: other 193 % of control | dose: 130.0 mg/kg/injection, schedule: Q01DX Z (sc), vehicle: other 172 % of control | dose: 130.1 mg/kg/injection, schedule: Q01DX Z (oral), vehicle: other 172 % of control | dose: 216.0 mg/kg/injection, schedule: Q01DX Z (sc), vehicle: other 150 % of control | dose: 216.1 mg/kg/injection, schedule: Q01DX Z (oral), vehicle: other 166 % of control | dose: 360.0 mg/kg/injection, schedule: Q01DX Z (sc), vehicle: other 155 % of control | dose: 360.1 mg/kg/injection, schedule: Q01DX Z (oral), vehicle: other 161 % of control

[Cl][Pt+2][Cl].[NH-]CC1(C[NH-])CCC1
active: dose: 3.12 mg/kg/injection, schedule: Q01DX009 (ip), vehicle: Klucel (hydroxypropylcellulose) (HPC) 158 % of control

COc1ccc2c(c1)-c1nn(CCCN(C)C)c3ccc([N+](=O)[O-])c(c13)N2
inactive: dose: 3.12 mg/kg/injection, schedule: Q01DX009 (ip), vehicle: water 122 % of control | dose: 25.0 mg/kg/injection, schedule: Q01DX009 (ip), vehicle: water 104 % of control
active: dose: 6.25 mg/kg/injection, schedule: Q01DX009 (ip), vehicle: water 161 % of control

CC(=O)OCC(=O)[C@@]1(O)CC[C@H]2[C@@H]3CCC4=CC(=O)CC[C@]4(C)[C@@]3(F)[C@@H](O)C[C@@]21C
inactive: [1] 121 % of control | [2] 115 % of control

O=C1c2c(O)ccc(O)c2C(=O)c2c(NCCNCCO)ccc(NCCNCCO)c21
active: dose: 2.0 mg/kg/injection, schedule: Q01DX009 (ip), vehicle: saline with Tween-80 168 % of control
inactive: dose: 0.5 mg/kg/injection, schedule: Q01DX009 (ip), vehicle: saline with Tween-80 105 % of control and 114 % of control and 116 % of control | dose: 1.0 mg/kg/injection, schedule: Q01DX009 (ip), vehicle: saline with Tween-80 114 % of control

COC12C(COC(N)=O)C3=C(C(=O)C(C)=C(N)C3=O)N1CC1C2N1C (centres undefined)
inactive: dose: 2.0 mg/kg/injection, schedule: Q01DX009 (ip), vehicle: saline 101 % of control | dose: 3.75 mg/kg/injection, schedule: Q01DX009 (ip), vehicle: saline 105 % of control | dose: 4.0 mg/kg/injection, schedule: Q01DX009 (ip), vehicle: saline 120 % of control | dose: 7.5 mg/kg/injection, schedule: Q01DX009 (ip), vehicle: saline 110 % of control | dose: 15.0 mg/kg/injection, schedule: Q01DX009 (ip), vehicle: saline 117 % of control | dose: 16.0 mg/kg/injection, schedule: Q01DX009 (ip), vehicle: saline 101 % of control

COC1=C(N)C(=O)c2nc(-c3nc(C(=O)O)c(C)c(-c4ccc(OC)c(OC)c4O)c3N)ccc2C1=O
inactive: dose: 0.13 mg/kg/injection, schedule: Q01DX Z (sc), vehicle: water 110 % of control | dose: 0.22 mg/kg/injection, schedule: Q01DX Z (sc), vehicle: water 110 % of control | dose: 0.36 mg/kg/injection, schedule: Q01DX Z (sc), vehicle: water 110 % of control | dose: 0.6 mg/kg/injection, schedule: Q01DX Z (sc), vehicle: water 105 % of control | dose: 1.0 mg/kg/injection, schedule: Q01DX Z (sc), vehicle: water 110 % of control

COCCCNc1ncnc2[nH]ncc12
inactive: dose: 23.0 mg/kg/injection, schedule: Q01DX Z (sc), vehicle: water 100 % of control | dose: 39.0 mg/kg/injection, schedule: Q01DX Z (sc), vehicle: water 100 % of control | dose: 65.0 mg/kg/injection, schedule: Q01DX Z (sc), vehicle: water 100 % of control | dose: 108.0 mg/kg/injection, schedule: Q01DX Z (sc), vehicle: water 100 % of control | dose: 180.0 mg/kg/injection, schedule: Q01DX Z (sc), vehicle: water 109 % of control | dose: 300.0 mg/kg/injection, schedule: Q01DX Z (sc), vehicle: water 109 % of control

O=C(CSc1ncnc2nc[nH]c12)c1ccccc1
inactive: dose: 38.9 mg/kg/injection, schedule: Q01DX Z (sc), vehicle: methylcellulose (MC) 95 % of control | dose: 64.8 mg/kg/injection, schedule: Q01DX Z (sc), vehicle: methylcellulose (MC) 95 % of control | dose: 108.0 mg/kg/injection, schedule: Q01DX Z (sc), vehicle: methylcellulose (MC) 100 % of control | dose: 180.0 mg/kg/injection, schedule: Q01DX Z (sc), vehicle: methylcellulose (MC) 100 % of control | [1] 100 % of control | [2] 100 % of control
